pIC50: −log10 of the molar value.
Legend:
[1] = biological target: T1, Voltage-gated inwardly rectifying potassium channel KCNH2 (Homo sapiens, UniProt Q12809)
Description: Inhibition of human ERG expressed in HEK293 cells by Q-patch assay

[2] = biological target: T1, Voltage-gated inwardly rectifying potassium channel KCNH2; remark: listed apart in the source
Description: Inhibition of human ERG expressed in HEK293 cells by Barracuda automated patch clamp assay

physchem = conditions: buffer, pH 7.4, logD
[3] = Protein binding in human blood at 1 ug/ml after 4 hrs by LC-MS/MS analysis; type: ADME, tissue-based; conditions: at 1 µg/mL, read-out: PB (converted)

T1 sequence (Q12809 whole entry): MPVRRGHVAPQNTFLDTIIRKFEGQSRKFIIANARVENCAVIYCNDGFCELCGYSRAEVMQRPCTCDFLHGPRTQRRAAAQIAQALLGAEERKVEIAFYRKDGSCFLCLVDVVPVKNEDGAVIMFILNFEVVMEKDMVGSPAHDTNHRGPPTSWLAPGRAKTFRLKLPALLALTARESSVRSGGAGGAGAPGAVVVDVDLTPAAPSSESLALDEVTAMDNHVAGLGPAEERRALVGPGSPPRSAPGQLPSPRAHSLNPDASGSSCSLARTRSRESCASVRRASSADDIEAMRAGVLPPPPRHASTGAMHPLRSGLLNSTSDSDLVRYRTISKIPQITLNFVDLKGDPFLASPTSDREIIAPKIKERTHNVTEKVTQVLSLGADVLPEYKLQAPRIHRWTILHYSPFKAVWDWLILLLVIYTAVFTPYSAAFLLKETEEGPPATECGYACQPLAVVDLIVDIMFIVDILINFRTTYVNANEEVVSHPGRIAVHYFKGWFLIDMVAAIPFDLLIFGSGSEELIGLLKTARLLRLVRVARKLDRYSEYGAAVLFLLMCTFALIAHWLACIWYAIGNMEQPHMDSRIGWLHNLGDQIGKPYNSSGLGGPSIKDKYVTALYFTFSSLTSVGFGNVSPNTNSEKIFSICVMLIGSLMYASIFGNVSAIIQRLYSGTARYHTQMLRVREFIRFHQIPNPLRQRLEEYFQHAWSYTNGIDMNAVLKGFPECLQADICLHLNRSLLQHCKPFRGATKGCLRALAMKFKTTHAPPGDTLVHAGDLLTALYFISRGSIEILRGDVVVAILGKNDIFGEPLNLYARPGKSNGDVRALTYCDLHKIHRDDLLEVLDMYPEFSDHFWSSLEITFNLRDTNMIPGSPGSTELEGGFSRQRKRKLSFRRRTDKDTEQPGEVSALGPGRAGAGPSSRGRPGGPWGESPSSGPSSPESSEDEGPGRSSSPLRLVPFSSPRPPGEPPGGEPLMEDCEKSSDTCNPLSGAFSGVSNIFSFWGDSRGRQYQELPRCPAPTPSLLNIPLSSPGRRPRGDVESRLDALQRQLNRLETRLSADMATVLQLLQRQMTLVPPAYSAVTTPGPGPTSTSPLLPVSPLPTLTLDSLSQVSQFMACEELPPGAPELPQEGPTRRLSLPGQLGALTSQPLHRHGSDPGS

| Compound | pIC50 [1] | pIC50 [2] | logD (physchem) | fraction unbound at 4 h, 1 ug/ml [3] |
| --- | --- | --- | --- | --- |
| Cc1cn(C)c(-c2cccc([C@H](CC(=O)O)CN3CC[C@@H](CCc4ccc5c(n4)NCCC5)C3)c2)n1 | < 4.50 | < 4.30 | 2.09 |  |
| O=C(O)C[C@H](CN1CC[C@@H](CCc2ccc3c(n2)NCCC3)C1)c1cccc(-n2cnnc2)c1 | < 4.50 | < 4.30 | 1.05 | 0.46 |
| Cc1cnn(-c2cccc([C@H](CC(=O)O)CN3CC[C@@H](CCc4ccc5c(n4)NCCC5)C3)c2)c1 |  | 5.00 | 3.01 |  |
| O=C(O)C[C@H](CN1CC[C@@H](CCc2ccc3c(n2)NCCC3)C1)c1cc(C2CC2)cc(N2CCOCC2)c1 |  |  | 3.07 |  |
| O=C(O)C[C@@H](CN1CC[C@@H](CCc2ccc3c(n2)NCCC3)C1)c1cccc(N2CCOCC2)c1 |  |  | 1.99 |  |
| Cc1nc(C)c(-c2cccc([C@H](CC(=O)O)CN3CC[C@@H](CCc4ccc5c(n4)NCCC5)C3)c2)[nH]1 | < 4.50 | < 4.30 | 1.77 | 0.53 |
